Series [1] can be described thus: Water solubility of exemplified compounds, USP solubility definition. The series is classed as physicochemical. The text has this: “Solubility” generally refers to the degree to which a substance dissolves in a solvent to make a solution (usually expressed as grams of solute per liter of solvent). Solubility of one fluid (liquid or gas) in another may be complete (totally miscible; e.g., methanol and water) or partial (e.g., oil and water dissolve only slightly). In general, “like dissolves like” (e.g., aromatic hydrocarbons dissolve in each other but not in water). Solubility is the ability of a solid, liquid, or gaseous chemical substance (referred to as the solute) to dissolve in a solvent (usually a liquid) and form a solution. The solubility of a substance depends on the types of solvent used, their polarity, and the temperature and pressure to which they are subjected. The solubility of a substance in a particular solvent is measured by the concentration of the saturated solution. A solution is considered saturated when adding additional solute no longer increases the concentration of the solution. The degree of solubility ranges widely depending on the substances, from infinitely soluble (fully miscible), such as ethanol in water, to poorly soluble, such as silver chloride in water. The term “insoluble” is often applied to poorly soluble compounds. Under certain conditions, the equilibrium solubility can be exceeded, yielding a supersaturated solution.
“Poorly water-soluble chemical compounds”: The United States Pharmacopeia (USP) designates the solubility of drugs as parts of solvent required for one part solute. […] The USP lists the solubility of a drug as the quantity of milliliters of solvent in which 1 g of solute will dissolve and assigns a descriptive term in the summary provided below.

The conditions of series [2]: cited from earlier work.
Series [3] is described as follows: Solubility screening panel in DEGEE. The format is physicochemical. The text has this:
Fisetin, trans-resveratrol, and milk thistle extract (comprising silymarin) were all found to be soluble in DEGEE in a solubility screening panel evaluating surfactants and other emulsifiers for use in topical delivery. An initial objective was to find a suitable miscible oil for use in hair applications, such as argan, sesame, sunflower, fractionated coconut, and grape seed oils. […] The next step was to evaluate oil soluble emulsifiers, such as glyceryl oleate, sorbitan oleate, lauryl oleate, and lauryl sulfate. […] Oleic acid (a fatty acid) is known to be miscible with DEGEE, but it is a […] fatty acid, which makes it an unfavorable choice for use in a long-term topical dosing formulation. Oleic acid was evaluated with a mixture of sorbitan laurate, polyglyceryl-4 laurate, and dilauryl citrate. This formulation made a miscible mixture with fisetin, trans-resveratrol, and milk thistle dissolved in DEGEE. However, the dilution of the mixture with water created a suspension, and once again, the solids precipitated out after approximately one hour.

For series [4] the following is noted: cited from earlier work. This is another data set of the same source.
The conditions of series [5]: cited from earlier work. This is another data set of the same source.
The conditions of series [6]: cited from earlier work. This is another data set of the same source.
The target of the next series is T1, Janus kinase 3 (JAK3) (Homo sapiens, UniProt P52333).
T1 sequence (P52333 1-1124): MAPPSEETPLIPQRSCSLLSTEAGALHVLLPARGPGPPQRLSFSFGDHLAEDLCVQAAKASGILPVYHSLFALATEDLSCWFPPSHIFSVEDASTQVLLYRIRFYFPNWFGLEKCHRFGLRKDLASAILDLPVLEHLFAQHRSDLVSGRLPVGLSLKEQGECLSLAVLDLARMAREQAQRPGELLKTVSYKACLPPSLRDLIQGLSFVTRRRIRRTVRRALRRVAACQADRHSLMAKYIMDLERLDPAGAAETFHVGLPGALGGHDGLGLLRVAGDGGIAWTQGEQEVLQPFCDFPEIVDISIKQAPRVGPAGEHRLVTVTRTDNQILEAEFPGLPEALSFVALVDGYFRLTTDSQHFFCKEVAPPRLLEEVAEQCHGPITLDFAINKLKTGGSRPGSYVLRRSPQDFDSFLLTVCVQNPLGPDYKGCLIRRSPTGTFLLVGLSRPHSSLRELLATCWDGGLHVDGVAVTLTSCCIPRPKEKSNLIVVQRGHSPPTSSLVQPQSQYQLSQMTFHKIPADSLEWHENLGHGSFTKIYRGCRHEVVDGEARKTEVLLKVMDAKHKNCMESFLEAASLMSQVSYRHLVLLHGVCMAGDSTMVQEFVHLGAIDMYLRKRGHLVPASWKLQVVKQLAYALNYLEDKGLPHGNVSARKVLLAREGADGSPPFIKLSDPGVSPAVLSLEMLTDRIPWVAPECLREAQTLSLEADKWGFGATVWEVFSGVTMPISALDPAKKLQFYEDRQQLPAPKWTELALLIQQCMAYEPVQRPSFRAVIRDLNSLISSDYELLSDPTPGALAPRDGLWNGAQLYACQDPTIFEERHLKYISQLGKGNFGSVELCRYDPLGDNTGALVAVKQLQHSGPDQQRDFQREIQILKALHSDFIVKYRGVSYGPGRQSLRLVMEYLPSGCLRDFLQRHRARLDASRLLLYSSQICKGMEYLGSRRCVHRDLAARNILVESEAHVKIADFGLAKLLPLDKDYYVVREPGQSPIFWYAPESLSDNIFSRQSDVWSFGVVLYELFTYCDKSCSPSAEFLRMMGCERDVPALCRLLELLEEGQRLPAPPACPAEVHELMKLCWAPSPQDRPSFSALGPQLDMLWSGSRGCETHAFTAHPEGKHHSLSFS
The following applies: cited from earlier work.

In brackets after ≈: the same amount, converted by molar mass. Read-outs that look alike come from different tables or passages of the source.

With `O=C1c2c(O)cc(O)cc2O[C@H](c2ccc(O)c(O)c2)[C@H]1O` [Dihydroquercetin], in series [1] (water), the “Definition (USP solubility descriptive term)” value (“Definition” for short) is given as “very slightly insoluble” and the mass_water/mass_solute is given as 2,500. For the same molecule, in series [2], the “Water Solubility” value was 400 µg/mL.

Consider Silymarin, for which, in series [1], the “Definition” value is recorded as “very slightly insoluble” and the mass_water/mass_solute is 2,500.

Take `Oc1ccc(/C=C/c2cc(O)cc(O)c2)cc1` [trans-Resveratrol, 5-[(E)-2-(4-hydroxyphenyl)ethen-1-yl]benzene-1,3-diol]: in series [1] (water), the “Definition” value is on record as “practically insoluble” and the mass_water/mass_solute is on record as 33,333. Moreover, in series [3], the “solubility in DEGEE” value is “soluble”. Besides, the half-life entry in series [4] (in vivo) is “about 15 min”. Moreover, the bioavailability entry in series [4] (oral) was “about 0.5%”. Also, in series [2], the reported aqueous solubility result is recorded as “about 0.03 mg/mL”.

As to `O=c1c(O)c(-c2ccc(O)c(O)c2)oc2cc(O)ccc12` [Fisetin, 2-(3,4-dihydroxyphenyl)-3,7-dihydroxy-4H-1-benzopyran-4-one], in series [1] (water), the “Definition” value is listed as “practically insoluble” and the mass_water/mass_solute is reported as 100,000. Moreover, in series [3], the “solubility in DEGEE” value is on record as “soluble”. The “log P” value in series [5] is given as 3.2. In series [2], the reported aqueous solubility result is “about 0.01 mg/mL” and the “Water Solubility” value was 10 µg/mL. Further, the aqueous solubility in series [2] (literature) is 10.45 µg/mL (≈ 36.5 µM).

For the molecule `O=C(O[C@@H]1Cc2c(O)cc(O)cc2O[C@@H]1c1cc(O)c(O)c(O)c1)c1cc(O)c(O)c(O)c1` [EGCG, [(2R,3R)-5,7-dihydroxy-2-(3,4,5-trihydroxyphenyl)chroman-3-yl]3,4,5-trihydroxybenzoate], in series [6] (after consumption (oral)), the “time at which blood levels peak” value is at most 1.7 h. Also, in series [6] (from almost immediately), the “time by which majority of unchanged EGCG is excreted into the urine” value is at most 8 h. For the same molecule, in series [6] (oral), the absorbed plasma half-life entry was “about 5 hours”.

For the molecule `C/C=C(/C)C(=O)O[C@H]1[C@@H]2[C@H](C)C(=O)O[C@@H]2C[C@@H](C)[C@@H]2C=CC(=O)[C@]21C` [Brevilin A], at Janus kinase 3 (JAK3), the “inhibition of JAK3” value is “inhibit”.

By log P is commonly meant the decadic logarithm of the partition coefficient of the neutral form, usually between octanol and water. A word on the aqueous solubility: it is the dissolved amount per volume that the medium holds.

Source of the values: patent publication US20230330019A1, “EMULSION FORMULATIONS OF POORLY WATER-SOLUBLE COMPOUNDS” (priority 2022, published 2023).
